For test [1], the system named is stage II and III colon adenocarcinoma. To be noted: oxaliplatin added to FU and LV; trials MOSAIC and C-07; cited from earlier work.
The next test has as its system early-stage colon cancer. To be noted: recent MOSAIC analysis; all stage II or high risk stage II patients; cited from earlier work.
The subject of test [2] is stage II and III colon cancer, CRC subtypes. In words: C-07 discovery cohort: oxaliplatin benefit by CRC intrinsic subtype (CRC-SSP-72), Kaplan Meier analysis. The class given is in vivo, human. An excerpt: FIG. 3 Kaplan Meier Plots of each CRC subtype using our gene signature by CRC-SSP-72 according to treatment (FULV versus FOLFOX) using recurrence free survival (RFS) as the end point. Among identified CRC subtypes, only Enterocyte received significant benefit (HR=0.315, p=0.005).
FIG. 4 Kaplan Meier Plots of the Enterocyte subtype and of all of the other subtypes (Goblet-like, Inflammatory, Stem-like and TA) combined into one group (Others) There is significant treatment-group interaction (p=0.012)
We have profiled 296 genes in 1840 patients using the nCounter Assay system (Nanostring Technologies, Seattle Wash.). Clinical data and nCounter data for the discovery dataset were merged and anonymized by the honest broker at the University of Pittsburgh as defined by standard operations under IRB approval of NSABP Biospecimen Bank and Biostatistics Center. We have developed a predictive algorithm to classify tumors into oxaliplatin benefit or no benefit group using discovery cohort of 848 patients without access to the data from the remaining 992 patients (validation cohort).
For C07, 2409 patients were enrolled in C-07 and all cases with tumor blocks, proper consent, clinical follow-up information and sufficient RNA yields were used in this study (N=1840). These cases were split into a discovery (N=848) and a validation (N=992) cohort (FIG. 1). […]

The structures appear in SMILES notation.

Take `O=C1[O][Pt]2([NH][C@@H]3CCCC[C@H]3[NH]2)[O]C1=O` [oxaliplatin]: the “disease free survival (DFS)” value in test [1] is reported as “significantly improved disease free survival”. Further, the “benefit in stage II patients” value with early-stage colon cancer is reported as “no statistically significant benefit”. Further, the “recurrence free survival (RFS) HR” value in test [2] (Enterocyte subtype, FULV versus oxaliplatin arm, p=0.005) is 0.315. Moreover, in test [2] (enterocyte subtype versus TA, goblet, inflammatory and stem-like, treatment-group interaction p=0.012), the “benefit from oxaliplatin by subtype” value is recorded as “only the enterocyte subtype received benefit”.

The values above are taken from patent US10166210B2, “Methods of subtyping CRC and their association with treatment of colon cancer patients with oxaliplatin” (NSABP Foundation, Inc., priority 2014, dated 2019).
